Experimental findings from publication PMC11446282 are described below.

No end group written: not given here.

The subject of one experiment is B55α interactors. Nature of the experiment: MS analysis of B55α WT, V228A, I284A, S287A and D340A immunopurifications. The format is binding, human. To be noted: log2 ratio of interactor abundance, 4 replicates each, normalised to bait B55α; for log2_ratio_D340_WT: B55α D340A vs WT immunopurification; for log2_ratio I284_WT: B55α I284A vs WT immunopurification; for log2_ratio S287_WT: B55α S287A vs WT immunopurification; for log2_ratio V228_WT: B55α V228A vs WT immunopurification. As to the method: Standard cloning techniques were used throughout. Point mutations were introduced by whole plasmid polymerase chain reaction (PCR). All constructs were fully sequenced. Synthetic DNA was purchased from GeneArt, Life Technologies and cloned into pcDNA5/FRT/TO (Invitrogen) expression vector containing YFP, resulting in the indicated YFP fusion proteins. These constructs were transiently transfected into HeLa cells 24 hours before harvesting cells. Cells were lysed in lysis buffer [50 mM tris-HCl (pH 7.5), 50 mM NaCl, 1 mM EDTA, 1 mM […], and 0.1% NP-40]. Complexes were immunoprecipitated at 4°C in lysis buffer with green fluorescent protein (GFP)–Trap (ChromoTek) and washed in lysis buffer. Precipitated protein complexes were washed three times in lysis buffer, eluted in 2× SDS sample buffer, and subjected to Western blotting or MS as indicated.
Pull-downs were analyzed on a Q-Exactive Plus quadrupole or Fusion Orbitrap Lumos mass spectrometer (Thermo Fisher Scientific) equipped with Easy-nLC 1000 or […] (Thermo Fisher Scientific) and nanospray source (Thermo Fisher Scientific).
Static modifications included carbamidomethylcysteine, and variable modifications included oxidized methionine and STY phosphorylation. Searches were filtered using orthogonal measures including mass measurement accuracy (±3 parts per million), Xcorr for charges from +2 to +4, and dCn targeting a <1% false discovery rate at the peptide level. Quantification of LC-MS/MS spectra was performed using MassChroQ ([57]) and the iBAQ method ([58]). All data were analyzed using R 4.3.0. Missing values were imputed from a normal distribution. […] In each dataset, the abundance of the protein of interest was normalized to be equal across all samples. Statistical analyses were done using a two-tailed Student’s t test.

Another experiment relates to PP2A-B55α. Put plainly: Affinity purification of YFP-tagged designed peptides from HeLa cells, binding to PP2A-B55α by Western blot. Also on record: species or system human. The settings on record: experimental binding of YFP-tagged designed peptide to PP2A-B55α.
The next experiment concerns the target T1, B55α (Homo sapiens, UniProt P63151).
T1 construct: His; made in house; host or cells: HEK293 cells
T1 sequence (P63151 1-447): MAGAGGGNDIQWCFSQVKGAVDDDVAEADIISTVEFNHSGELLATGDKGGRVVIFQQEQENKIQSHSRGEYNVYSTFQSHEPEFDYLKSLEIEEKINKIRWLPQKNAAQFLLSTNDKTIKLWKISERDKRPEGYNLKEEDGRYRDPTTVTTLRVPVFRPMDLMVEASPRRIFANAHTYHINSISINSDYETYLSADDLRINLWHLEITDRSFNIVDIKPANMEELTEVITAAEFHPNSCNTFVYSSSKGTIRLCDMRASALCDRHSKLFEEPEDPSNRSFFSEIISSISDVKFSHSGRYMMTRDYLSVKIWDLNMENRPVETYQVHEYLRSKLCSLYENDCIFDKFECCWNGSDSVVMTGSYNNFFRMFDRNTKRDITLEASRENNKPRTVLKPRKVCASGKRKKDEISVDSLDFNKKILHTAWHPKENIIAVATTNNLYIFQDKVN
Nature of the experiment: Surface plasmon resonance with captured Twin-Strep B55α. To be noted: same SPR approach as for B55i; fig. S15. In kind it is binding.

Consider BAG3_HUMAN, for which, in the experiment on B55α interactors, the log2_ratio_D340_WT is reported as 0.51, the “log2_ratio I284_WT” value amounted to 0.79, the “log2_ratio S287_WT” value is reported as 1.17 and the “log2_ratio V228_WT” value was 0.37.

As for DNJA2_HUMAN, in the experiment with B55α interactors, the log2_ratio_D340_WT is 1.00, the “log2_ratio I284_WT” value is listed as 0.64, the “log2_ratio S287_WT” value was found to be 1.02 and the “log2_ratio V228_WT” value is listed as 0.87.

In the case of DNJB6_HUMAN, in the experiment with B55α interactors, the log2_ratio_D340_WT is given as -0.39, the “log2_ratio I284_WT” value is on record as 0.42, the “log2_ratio S287_WT” value is listed as 1.10 and the “log2_ratio V228_WT” value amounted to 2.13.

Regarding EEKLRILEKMEEKLKDKSLSLEKKVLLKNAKKSL, in the experiment on PP2A-B55α, the “binding to PP2A-B55α (Western blot)” value is on record as 28.

Turning to EKILEIAKKKIEELKKKPGGLDLEKYLLYKKLIEKV, the “binding to PP2A-B55α (Western blot)” value in the experiment on PP2A-B55α was found to be 15.

Regarding EKRKKLKEKALEKLKDPNRDLEEKVLLRNWLKSL, the “binding to PP2A-B55α (Western blot)” value in the experiment with PP2A-B55α worked out at 14.

Consider ELIKRLYEKAKEKLKDESRSLEKKVLLRNWIKSL, for which, in the experiment on PP2A-B55α, the “binding to PP2A-B55α (Western blot)” value turned out to be 62.5.

Consider ELPLEEVERLLKLAEEKLKDESLSLTKKVLLRNL, for which, in the experiment on PP2A-B55α, the “binding to PP2A-B55α (Western blot)” value is given as 55.5.

Take HAX1_HUMAN: in the experiment with B55α interactors, the log2_ratio_D340_WT is given as -0.10, the “log2_ratio I284_WT” value is given as -0.26, the “log2_ratio S287_WT” value came to 0.0269 and the “log2_ratio V228_WT” value is -0.50.

For the substance HS90A_HUMAN, in the experiment with B55α interactors, the log2_ratio_D340_WT was -0.17, the “log2_ratio I284_WT” value is given as -0.24, the “log2_ratio S287_WT” value was found to be 0.22 and the “log2_ratio V228_WT” value was -0.28.

Turning to HS90B_HUMAN, in the experiment on B55α interactors, the log2_ratio_D340_WT is recorded as -0.13, the “log2_ratio I284_WT” value is listed as -0.16, the “log2_ratio S287_WT” value came out at 0.29 and the “log2_ratio V228_WT” value is -0.12.

Turning to HSPB1_HUMAN, in the experiment with B55α interactors, the log2_ratio_D340_WT is -1.28, the “log2_ratio I284_WT” value is listed as -0.92, the “log2_ratio S287_WT” value was -0.85 and the “log2_ratio V228_WT” value was -0.80.

Consider LLELAKKKYEEELKKKEPDLTKLVLLKNVIKKLK, for which, in the experiment on PP2A-B55α, the “binding to PP2A-B55α (Western blot)” value turned out to be 42.

Consider “MQPINKARALYRISHLKLSNSKREQDEQVLLRLHMIAFLNIVNHT”, for which, in the experiment on PP2A-B55α, the “binding to PP2A-B55α (Western blot)” value turned out to be 0.

As to PVKLQLLKKAKEKLADENLSLEKKVLLKNLIKSW, in the experiment with PP2A-B55α, the “binding to PP2A-B55α (Western blot)” value came out at 68.

On to “QIIQRSFSSPENFQRQAVMNSALRQMSYGGW [RBM7 129–158 WT]”, for which the “binding to B55α, affinity range” value at B55α is reported as “low micromolar”.

Consider QRLMTLSVWKMYHSRMQRGGEDAWLSLMLSLAMRLG, for which, in the experiment with PP2A-B55α, the “binding to PP2A-B55α (Western blot)” value is 0.

Turning to “RLPINLERALYRLSHLKLSNSKRELYEQVALKLAMLGFLNLVNHT”, the “binding to PP2A-B55α (Western blot)” value in the experiment on PP2A-B55α is 11.5.

Consider “SLIWQSNMDKALVKLQLCHMLEQPDLTKSVMILAGVLAAQEFM”, for which the “binding to PP2A-B55α (Western blot)” value in the experiment on PP2A-B55α was found to be 0.
